The text below walks through data of patent publication US20260256751A1, “COMBINATION OF BETA-2-ADRENERGIC RECEPTOR AGONISTS AND GLP-1 RECEPTOR AGONISTS FOR USE IN TREATING HYPERGLYCAEMIA” (ATROGI AB, priority 2023, published 2026).

For test [1], the system named is differentiated L6-myotubes. The test is described as follows: cAMP production relative to isoprenaline (Biological example 2 of WO 2019/053427). The note with it: 0.25 h, compound at 10 μM, activity relative to isoproterenol at 10 μM. It counts as cell-based. Put shortly: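 Values are cAMP levels relative to isoprenaline at equal concentration (final 1×10^−5 M for both). Stimulation lasted 15 min in differentiated L6 myotubes, using HBSS buffer (pH 7.4) containing 1 mM IBMX, 5 mM HEPES and 1% BSA.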
(Cyclic AMP is a second messenger, typically raised through Gs and lowered through Gi signalling.)

Test [2] relates to differentiated L6-myotubes. The test is described as follows: Glucose uptake screen (Biological example 1 of WO 2019/053427). It counts as cell-based. The note with it: compound at 10 μM, activity relative to isoproterenol at 10 μM, read-out: Biological example 1 of WO 2019/053427 (GU). In outline:
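Uptake was read out as ^3H-2-deoxyglucose (50 nM, 10 min) radioactivity in NaOH lysates. Beforehand, overnight-starved, differentiated L6 myotubes received compound at 1×10^−5 M with ICI-118551 present for 1 h 40 min, followed by fresh agonist for a further 20 min in glucose-free medium.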

Structures are written as SMILES. A value given as a limit tells only on which side of the number the result lay.

On to `CN(C)C(=O)N[C@H]1CC[C@@H](CC(C)(C)NC[C@H](O)c2cccc(F)c2)CC1` [Compound 457, (R)-2-{1,1-dimethyl-2-[(1s,4S)-4-(3,3-dimethylureido)cyclohexyl]ethylamino}-1-(m-fluorophenyl)-1-ethanol], for which the Emax at 10 µM is 25 to 50% in test [1] and greater than 75% in test [2].
On the same counts, the results for `CC(=O)N(C)[C@H]1CC[C@H](CC(C)(C)NC[C@H](O)c2cncc(F)c2)CC1` [Compound 506, N-[(1R,4r)-4-{2-[(R)-2-(5-fluoro-3-pyridyl)-2-hydroxyethylamino]-2-methylpropyl}cyclohexyl]-N-methylacetamide] are 25 to 50% and greater than 75%.
With `CC(C)(C[C@H]1CC[C@@H](NC(=O)OC(C)(C)C)CC1)NC[C@H](O)c1cncc(F)c1` [Compound 469], the Emax at 10 µM was less than 25% in test [1] and greater than 75% in test [2].
Taken in the same sequence, the figures for `CC1(C)CCC[C@H]([C@@H](O)c2cccc(Cl)c2)N1` [Compound 164, (S)-[(R)-6,6-dimethyl-2-piperidyl](m-chlorophenyl)methanol] were less than 25% and 50 to 75%.
Take `CC(C)(CC[C@H]1CC[C@H](N)CC1)NC[C@H](O)c1cncc(F)c1` [Compound 358, (R)-2-{1,1-dimethyl-3-[(1r,4R)-4-aminocyclohexyl]propylamino}-1-(5-fluoro-3-pyridyl)-1-ethanol]: the Emax at 10 µM in test [1] was less than 25%; in test [2], 25 to 50%.
Taken in the same sequence, the figures for `CCC[C@H]1CCC[C@H]([C@@H](O)c2cccc(Cl)c2)N1` [Compound 129, (S)-[(2R,6S)-6-propyl-2-piperidyl](m-chlorophenyl)methanol] were less than 25% and 25 to 50%.
As for `CCC[C@@H](C)NC[C@H](O)c1ccc(F)cc1` [Compound 52, (R)-2-[(R)-1-methylbutylamino]-1-(p-fluorophenyl)-1-ethanol], the figures for the Emax at 10 µM in test [1] and in test [2] were less than 25% and 50 to 75%, respectively.
`CC1(C)CCC[C@H]([C@H](O)c2ccccc2Cl)N1` [Compound 162, (R)-[(R)-6,6-dimethyl-2-piperidyl](o-chlorophenyl)methanol]: the Emax at 10 µM was less than 25% in test [1] and 25 to 50% in test [2].
Taken in the same sequence, the figures for `O[C@H](c1cccc(F)c1)C12CCC(CCc3ccc(Cl)cc3)(CC1)N2` [Compound 528, (R)-{4-[2-(p-chlorophenyl)ethyl]-7-azabicyclo[2.2.1]hept-1-yl}(m-fluorophenyl)methanol] were less than 25% and less than 25%.
On the same counts, the results for `CCC[C@H]1CCC[C@H]([C@H](O)c2ccccc2Cl)N1` [Compound 135, (R)-[(2R,6S)-6-propyl-2-piperidyl](o-chlorophenyl)methanol] are less than 25% and 25 to 50%.
Taken in the same sequence, the figures for `CC(C)(C[C@H]1CC[C@H](NS(C)(=O)=O)CC1)NC[C@H](O)c1cncc(F)c1` [Compound 360, (R)-2-{1,1-dimethyl-2-[(1r,4R)-4-(mesylamino)cyclohexyl]ethylamino}-1-(5-fluoro-3-pyridyl)-1-ethanol] were less than 25% and greater than 75%.
In the case of `CC(C)(C[C@H]1CC[C@@H](NS(C)(=O)=O)CC1)NC[C@H](O)c1cccc(F)c1` [Compound 453, (R)-2-{1,1-dimethyl-2-[(1s,4S)-4-(mesylamino)cyclohexyl]ethylamino}-1-(m-fluorophenyl)-1-ethanol], the Emax at 10 µM is less than 25% in test [1] and greater than 75% in test [2].
On the same counts, the results for `CC(C)(C[C@H]1CC[C@@H](NC(=O)OC(C)(C)C)CC1)NC[C@H](O)c1cccc(C(F)(F)F)n1` [Compound 450, (1R,4s)-4-(2-{(S)-2-hydroxy-2-[6-(trifluoromethyl)-2-pyridyl]ethylamino}-2-methylpropyl)cyclohexyl 2-methyl-2-propanecarbamate] are less than 25% and less than 25%.
On the same counts, the results for `CC(C)(CC[C@H]1CC[C@H](C(=O)O)CC1)NC[C@H](O)c1cncc(F)c1` [Compound 343, (1R,4r)-4-{3-[(R)-2-(5-fluoro-3-pyridyl)-2-hydroxyethylamino]-3-methylbutyl}cyclohexanecarboxylic acid] are less than 25% and 25 to 50%.
On the same counts, the results for `CS(=O)(=O)N[C@H]1CC[C@@H](CNC[C@H](O)c2cncc(F)c2)CC1` [Compound 314, (R)-1-(5-fluoro-3-pyridyl)-2-({[(1s,4S)-4-(mesylamino)cyclohexyl]methyl}amino)-1-ethanol] are less than 25% and 50 to 75%.
Regarding `CCCCNC[C@H](O)c1ccc(F)cc1O` [Compound 81, (R)-2-(butylamino)-1-(4-fluoro-2-hydroxyphenyl)-1-ethanol], the Emax at 10 µM in test [1] is less than 25%; in test [2], 50 to 75%.
With `CC1(C)C[C@H]([C@H](O)c2cccc(Cl)c2)N1` [Compound 230, (R)-[(R)-4,4-dimethyl-2-azetidinyl](m-chlorophenyl)methanol], the values for the Emax at 10 µM in test [1] and in test [2] were less than 25% and greater than 75%, respectively.
On the same counts, the results for `CS(=O)(=O)N(Cc1ccccc1)[C@H]1CC[C@H](C[C@@H]2CC[C@H]([C@H](O)c3cccc(F)c3)N2)CC1` [Compound 502, (R)-[(2R,5S)-5-({(1r,4S)-4-[(benzyl)-N-mesylamino]cyclohexyl}methyl)-2-pyrrolidinyl](m-fluorophenyl)methanol] are less than 25% and less than 25%.
Taken in the same sequence, the figures for `CC(C)(C[C@H]1CC[C@H](NC(=O)C(C)(C)C)CC1)NC[C@H](O)c1cccc(F)c1` [Compound 429, N-[(1R,4r)-4-{2-[(R)-2-(m-fluorophenyl)-2-hdyroxyethylamino]-2-methylpropyl}cyclohexyl]2,2-dimethylpropionamide] were 25 to 50% and greater than 75%.
Regarding `O[C@@H](CNCCC[C@H]1CC[C@H](O)CC1)c1cccc(F)c1` [Compound 303, (R)-1-(m-fluorophenyl)-2-{3-[(1r,4S)-4-hydroxycyclohexyl]propylamino}-1-ethanol], the results for the Emax at 10 µM in test [1] and in test [2] were less than 25% and 50 to 75%, respectively.
Take `CCCS(=O)(=O)N[C@H]1CC[C@@H](CC(C)(C)NC[C@H](O)c2cncc(F)c2)CC1` [Compound 523, (R)-2-{1,1-dimethyl-2-[(1s,4S)-4-(propylsulfonylamin)cyclohexyl]ethylamino}-1-(5-fluoro-3-pyridyl)-1-ethanol]: the Emax at 10 µM in test [1] is less than 25%; in test [2], 50 to 75%.
Taken in the same sequence, the figures for `CS(=O)(=O)N(Cc1ccccc1)c1ccc(CC23CCC([C@@H](O)c4cccc(F)c4)(CC2)N3)cc1` [Compound 472, (S)-[4-({p-[(benzyl)-N-mesylamino]phenyl}methyl)-7-azabicyclo[2.2.1]hept-1-yl](m-fluorophenyl)methanol] were less than 25% and 25 to 50%.
On to `CC1(C)CCC[C@@H]([C@@H](O)c2ccccc2F)N1` [Compound 192, (S)-[(S)-6,6-dimethyl-2-piperidyl](o-fluorophenyl)methanol], for which the Emax at 10 µM is less than 25% in test [1] and 25 to 50% in test [2].
On to `CC(C)(C[C@H]1CC[C@H](NS(=O)(=O)C2CC2)CC1)NC[C@H](O)c1cccc(F)c1` [Compound 496, (R)-2-{1,1-dimethyl-2-[(1r,4R)-4-(cyclopropylsulfonylamino)cyclohexyl]ethylamino}-1-(m-fluorophenyl)-1-ethanol], for which the Emax at 10 µM is less than 25% in test [1] and 50 to 75% in test [2].
Taken in the same sequence, the figures for `CS(=O)(=O)N(Cc1ccccc1)c1cccc(CC23CCC([C@@H](O)c4cccc(F)c4)(CC2)N3)c1` [Compound 512, (S)-[4-({m-[(benzyl)-N-mesylamino]phenyl}methyl)-7-azabicyclo[2.2.1]hept-1-yl](m-fluorophenyl)methanol] were less than 25% and less than 25%.
As to `CC(=O)N[C@H]1CC[C@H](C(C)(C)NC[C@H](O)c2cccc(F)c2)CC1` [Compound 386, N-[(1R,4r)-4-{1-[(R)-2-(m-fluorophenyl)-2-hydroxyethylamino]-1-methylethyl}cyclohexyl]acetamide], the Emax at 10 µM was less than 25% in test [1] and greater than 75% in test [2].
On the same counts, the results for `CC(=O)N(Cc1ccccc1)[C@H]1CC[C@H](C[C@@H]2CC[C@H]([C@@H](O)c3cccc(F)c3)N2)CC1` [Compound 481, N-[(1S,4r)-4-({(2S,5R)-5-[(S)-(m-fluorophenyl)hydroxymethyl]-2-pyrrolidinyl}methyl)cyclohexyl]-N-benzylacetamide] are less than 25% and less than 25%.
On the same counts, the results for `CCC[C@H]1CCC[C@H]([C@@H](O)c2cccc(F)c2)N1` [Compound 70, (S)-[(2R,6S)-6-propyl-2-piperidyl](m-fluorophenyl)methanol] are less than 25% and 50 to 75%.
Regarding `O[C@@H](c1cncc(F)c1)C12CCC(COCc3ccc(OC(F)(F)F)cc3)(CC1)N2` [Compound 489, (S)-(5-fluoro-3-pyridyl)(4-{[(p-trifluoromethoxyphenyl)methoxy]methyl}-7-azabicyclo[2.2.1]hept-1-yl)methanol], the Emax at 10 µM in test [1] and in test [2] was less than 25% throughout.
For the compound `CS(=O)(=O)N[C@H]1CC[C@@H](CNC[C@H](O)c2cccc(F)c2)CC1` [Compound 312, (R)-1-(m-fluorophenyl)-2-({[(1s,4S)-4-(mesylamino)cyclohexyl]methyl}amino)-1-ethanol], the figures for the Emax at 10 µM in test [1] and in test [2] were less than 25% and 50 to 75%, respectively.
